Source: patent publication US7094909B2, “HIV protease inhibitors, compositions containing the same, their pharmaceutical uses and materials for their synthesis” (priority 2001, dated 2006)

Columns and labels:
[1] = molecular target: T1, HIV-1 protease (Q7S mutant form) (Human immunodeficiency virus type 1 group M subtype B, UniProt P04585, Q495S); assay: HIV-1 Protease RET assay; format: biochemical; conditions: Ki, unit inferred
T1 construct: made in house
How it was run: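 Q7S HIV-1 protease, refolded from urea, 2 nM active dimer with 5 μM EDANS/DABCYL peptide cleaved at Tyr-Pro; fluorescence 340/490 nm. 12 min at 37 °C in 0.1M sodium acetate pH 4.8, 1M NaCl, 10% DMSO. Ki from Morrison tight-binding fit.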

[2] = system: HIV-1 (HIV-1 RF, HIV-1 NL4-3) in CEM-SS / MT-2 cells; assay: Cytopathic effect (CPE) inhibition assay (XTT/MTT dye reduction); format: cell-based; conditions: Human immunodeficiency virus 1, NL43, unit inferred; read-out: EC50
Method: T-cell lines, CEM-SS, and MT-2, and viruses HIV-1 RF and HIV-1 NL4-3 (pNL4-3) were obtained from the National Institutes of Health (AIDS Research and Reference Reagent Program, Bethesda, Md.).
Cytopathic Effect (CPE) Inhibition Assays
The ability of compounds to protect cells against HIV infection was measured by the […] dye reduction method, essentially as described (See Pauwels, R. Balzarini, J. Baba, M. Snoeck, R. Schols, D. Herdewijn, P. Desmyter, J. and De Clercq, E. 1988, “Rapid and automated tetrazolium-based colorimetric assay for the detection of anti-HIV compounds,”. J Virol. Methods., 20: 309–321 and Weislow, O. S. Kiser, R. Fine, D. L. Bader, J. Shoemaker, R. H. and Boyd, M. R. 1989. “New soluble-formazan assay for HIV-1 cytopathic effects: application to high-flux screening of synthetic and natural products for AIDS-antiviral activity”. J. Natl. Cancer Inst. 81:577–586). Subject cells were infected with test virus at an moi of 0.025 to 0.819 or mock infected with medium only and added at 2×10^4 cells per well into 96 well plates containing half-log dilutions of test compounds. Six days later, 50 μl of XTT (1 mg/ml XTT tetrazolium, 0.02 nM phenazine methosulfate) was added to the wells and the plate was reincubated for four hours. Viability, as determined by the amount of XTT formazan produced, was quantified spectrophotometrically by absorbance at 450 nm. Data from CPE assays were expressed as the percent of formazan produced in compound-treated cells compared to formazan produced in wells of uninfected, compound-free cells. The fifty percent effective concentration (EC50) was calculated as the concentration of compound that effected an increase in the percentage of formazan production in infected, compound-treated cells to 50% of that produced by uninfected, compound-free cells. The 50% cytotoxicity concentration (CC50) was calculated as the concentration of compound that decreased the percentage of formazan produced in uninfected, compound-treated cells to 50% of that produced in uninfected, compound-free cells. The therapeutic index was calculated by dividing the cytotoxicity (CC50) by the antiviral activity (EC50).

SMILES	Ki [1]	EC50 [2]
Cc1ccccc1CNC(=O)[C@H]1N(C(=O)[C@@H](O)[C@H](Cc2ccccc2)NC(=O)[C@@H](NC(=O)COc2cccc(N(C)C)c2)C(C)C)CSC1(C)C	≤ 0.1 nM	14 nM
Cc1ccccc1CNC(=O)[C@@H]1N(C(=O)[C@@H](O)[C@H](Cc2ccccc2)NC(=O)c2cccc(O)c2C)CSC12CCCC2	0.34 nM	40 nM
C=CCNC(=O)[C@H]1N(C(=O)[C@@H](O)[C@H](Cc2ccccc2)NC(=O)[C@@H](NC(=O)c2ccc3ccccc3n2)C(C)C)CSC1(C)C	≤ 0.1 nM	41 nM
Cc1ccccc1CNC(=O)[C@H]1N(C(=O)[C@@H](O)[C@H](Cc2ccccc2)NC(=O)[C@@H](NC(=O)c2ccccn2)C(C)C)CSC1(C)C	≤ 0.1 nM	126 nM
Cc1ccc(C(=O)N[C@@H](Cc2ccccc2)[C@H](O)C(=O)N2CSC(C)(C)[C@H]2C(=O)NCc2cccs2)c(C)c1O	0.39 nM	332 nM
Cc1ccc(C(=O)N[C@@H](Cc2ccccc2)[C@H](O)C(=O)N2CSC(C)(C)[C@H]2C(=O)NCc2ccco2)c(C)c1O	2 nM	488 nM
Cc1ccccc1CCC(=O)[C@H]1N(C(=O)[C@@H](O)[C@H](Cc2ccccc2)NC(=O)O[C@H]2CCOC2)CSC1(C)C	0.76 nM	573 nM
CC(=O)Oc1cccc(C(=O)N[C@@H](CSc2ccccc2)[C@H](O)CN2C[C@H]3CCCC[C@H]3C[C@H]2C(=O)NCc2ccccc2C)c1C	109 nM	672 nM
Cc1ccccc1CNC(=O)[C@@H]1C[C@@H]2CCCC[C@@H]2CN1C[C@@H](O)[C@H](CSc1ccccc1)NC(=O)c1cccc(O)c1C	6.4 nM	901 nM
CC(=O)C(=O)N[C@@H](Cc1ccccc1)[C@H](O)C(=O)N1CSC(C)(C)[C@H]1C(=O)NCc1ccccc1C	4.7 nM	≥ 1000 nM
Cc1ccccc1CNC(=O)[C@H]1N(C(=O)[C@@H](O)[C@H](Cc2ccccc2)NC(=O)CBr)CSC1(C)C	0.78 nM	≥ 1000 nM
Cc1cccc(C)c1OCC(=O)N[C@@H](Cc1ccccc1)[C@H](O)C(=O)N1CSC(C)(C)[C@H]1C(=O)NC[C@H]1CCCO1	4.2 nM	≥ 1000 nM
CCN1CCc2c(C(=O)N[C@@H](Cc3ccccc3)[C@H](O)C(=O)N3CSC(C)(C)[C@H]3C(=O)NCc3ccccc3C)cccc21	6.7 nM	1010 nM
Cc1ccccc1CNC(=O)[C@H]1N(C(=O)[C@@H](O)[C@H](Cc2ccccc2)NC(=O)COc2c(C)cc(Cl)cc2C)CSC1(C)C	0.38 nM	1110 nM
Cc1ccc(C(=O)N[C@@H](Cc2ccccc2)[C@H](O)C(=O)N2CSC(C)(C)C2C(=O)N[C@@H]2C=CCCC2)c(C)c1O (stereo partly shown)	0.13 nM	1160 nM
Cc1c(O)cccc1C(=O)N[C@@H](Cc1ccccc1)[C@H](O)C(=O)N1CSC(C)(C)[C@H]1C(=O)N1CCc2ccccc2C1	9 nM	1180 nM
CC1(C)SCN(C(=O)[C@@H](O)[C@H](Cc2ccccc2)NC(=O)[C@@H]2CCCO2)[C@@H]1C(=O)N[C@H]1CCCc2ccccc21	4.3 nM	1190 nM
Cc1ccccc1CNC(=O)[C@H]1N(C(=O)[C@@H](O)C(Cc2ccccc2)NC(=O)CNc2c(C)cccc2C)CSC1(C)C (stereo partly shown)	2.3 nM	1220 nM
Cc1c(O)cccc1C(=O)N[C@@H](Cc1ccccc1)[C@H](O)C(=O)N1CSC(C)(C)[C@H]1C(=O)NC1CCC(C(C)(C)C)CC1 (stereo partly shown)	26 nM	1230 nM
CC1(C)SCN(C(=O)[C@@H](O)[C@H](Cc2ccccc2)NC(=O)CSc2nc[nH]n2)[C@@H]1C(=O)N[C@H]1CCc2ccccc21	3.9 nM	1230 nM
CC1(C)SCN(C(=O)[C@@H](O)[C@H](Cc2ccccc2)NC(=O)[C@@H]2CCCO2)[C@@H]1C(=O)N[C@H]1CCOc2ccccc21	7.5 nM	1250 nM

SMILES	Ki [1]	EC50 [2]
CC1(C)SCN(C(=O)[C@@H](O)[C@H](Cc2ccccc2)NC(=O)CSc2nc[nH]n2)[C@@H]1C(=O)N[C@@H]1C=CCCC1	6.1 nM	1280 nM
Cc1ccccc1CNC(=O)[C@H]1N(C(=O)[C@@H](O)[C@H](Cc2ccccc2)NC(=O)OC(C)(C)C)CSC1(C)C	3 nM	1290 nM
Cc1c(O)cccc1C(=O)N[C@@H](Cc1ccccc1)[C@H](O)C(=O)N1CSC(C)(C)[C@H]1C(=O)N[C@H]1CC1c1ccccc1 (stereo partly shown)	17.2 nM	1330 nM
C#CCOC(=O)N[C@@H](Cc1ccccc1)[C@H](O)C(=O)N1CSC(C)(C)[C@H]1C(=O)NCCC	4.8 nM	1350 nM
Cc1ccccc1CNC(=O)[C@H]1N(C(=O)[C@@H](O)[C@H](Cc2ccccc2)NC(=O)OCCCl)CSC1(C)C	0.44 nM	1430 nM
Cc1cccc(C)c1OCC(=O)N[C@@H](Cc1ccccc1)[C@H](O)C(=O)N1CSC(C)(C)[C@H]1C(=O)NCc1ccccc1Cl	≤ 0.1 nM	1540 nM
Cc1ccccc1CNC(=O)C1N(C(=O)[C@@H](O)[C@H](Cc2ccccc2)NC(=O)CSc2nccs2)CSC1(C)C (stereo partly shown)	6.9 nM	1550 nM
CCCOC(=O)N[C@@H](Cc1ccccc1)[C@H](O)C(=O)N1CSC(C)(C)[C@H]1C(=O)NCc1ccccc1C	1.1 nM	1550 nM
CC1(C)SCN(C(=O)[C@@H](O)[C@H](Cc2ccccc2)NC(=O)O[C@H]2CCOC2)[C@@H]1C(=O)N[C@@H]1CCOc2ccccc21	3.7 nM	1550 nM
Cc1ccccc1CNC(=O)[C@H]1N(C(=O)[C@@H](O)[C@H](Cc2ccccc2)NC(=O)COc2ccccc2C)CSC1(C)C	0.89 nM	1560 nM
CCOC(=O)N[C@@H](Cc1ccccc1)[C@H](O)C(=O)N1CSC(C)(C)[C@H]1C(=O)NCc1ccccc1C	0.88 nM	1640 nM
CCCCOC(=O)N[C@@H](Cc1ccccc1)[C@H](O)C(=O)N1CSC(C)(C)C1C(=O)NCc1ccccc1C (stereo partly shown)	7.6 nM	1760 nM
Cc1cccc(C)c1OCC(=O)N[C@@H](Cc1ccccc1)[C@H](O)C(=O)N1CSC(C)(C)[C@H]1C(=O)NCc1c(F)cccc1F	0.32 nM	1880 nM
CCC(=O)NC(Cc1ccccc1)[C@H](O)C(=O)N1CSC(C)(C)C1C(=O)NCc1ccccc1C (stereo partly shown)	8.4 nM	≥ 3200 nM
C=CC(C)COC(=O)NC(Cc1ccccc1)[C@H](O)C(=O)N1CSC(C)(C)C1C(=O)NCc1ccccc1C (stereo partly shown)	15.1 nM	≥ 3200 nM
Cc1ccccc1CNC(=O)[C@@H]1CC(F)(F)CN1C(=O)[C@@H](O)[C@H](Cc1ccccc1)NC(=O)C1C(C)C(=O)ON1C (stereo partly shown)	3.6 nM	≥ 3200 nM
Cc1ccccc1CNC(=O)[C@H]1C2CCC(C2)N1C(=O)[C@@H](O)[C@H](Cc1ccccc1)NC(=O)c1cccc(O)c1C (stereo partly shown)	18.4 nM	4000 nM
Cc1ccccc1CNC(=O)[C@H]1N(C(=O)[C@@H](O)[C@H](Cc2ccccc2)NC(=O)OCc2ccccc2)CSC1(C)C	1.4 nM	4220 nM
Cc1ccccc1CNC(=O)[C@@H]1CCCCN1C(=O)[C@@H](O)[C@H](Cc1ccccc1)NC(=O)c1cccc(O)c1C	51.7 nM	5870 nM
COc1cc2c(cc1OC)CN(C(=O)[C@H]1N(C(=O)[C@@H](O)[C@H](Cc3ccccc3)NC(=O)c3cccc(O)c3C)CSC1(C)C)CC2	46 nM	≥ 10000 nM
